In paper PMC9738107, “Targeting of the ELR+CXCL/CXCR1/2 Pathway Is a Relevant Strategy for the Treatment of Paediatric Medulloblastomas” (Cells, 2022):

What was measured:
Type in all cases: cell-based, human
D341Med cells = experiment: XTT assay (cell metabolism/cytotoxicity); settings: for IC50: Homo sapiens, D341 Med
Excerpt: (§1) To evaluate the efficacy of this compound in MB cells, we first determined the relative IC50 values for each cell line using XTT assays (Figure 3A–E). The XTT assay is used to measure cellular metabolic activity (overall activity of mitochondrial dehydrogenases) as an indicator of cell viability, proliferation, and cytotoxicity. […] Overall, IC50 values for all cell lines were in the micromolar range, making C29 a very efficient agent to inhibit cell metabolism and viability.
(§2) Figure 3 A new pharmacological inhibitor of CXCR1/2, C29, inhibits the metabolism of MB cells. (A–D). Cytotoxic effect induced by C29 on Daoy (A), ONS-76 (B), HD-MB03 (C), and D341Med (D) cells. Cells were treated with increasing doses of the inhibitor for 24, 48, and 72 h. Cytotoxicity was measured using the XTT assay. Absorbance measurements were performed at […], n = 3. (E) Table with the different IC50 values for all conditions. (F) Cell death after 48 h of treatment with control (DMSO, CT) or C29 1, 2.5 or 5 µM treatment, on MB cells, and normal cells (N), n = 3. Statistics were performed using the one-way method ANOVA. ** p < 0.01, *** p < 0.001. For this figure, Daoy = Da, ONS-76 = O, HD-MB03 = HD, D341 = D3, C8D1A = C8. TEXT PRINTED IN THE PICTURE: (E) C29: IC50 (μM): 5.6 (Cell line: Daoy; 24h); IC50 (μM): 3 (Cell line: Daoy; 48h); IC50 (μM): 0.9 (Cell line: Daoy; 72h); IC50 (μM): 17.9 (Cell line: ONS-76; 24h); IC50 (μM): 6.8 (Cell line: ONS-76; 48h); IC50 (μM): 2.1 (Cell line: ONS-76; 72h); IC50 (μM): 2.6 (Cell line: HD-MB03; 24h); IC50 (μM): 1.8 (Cell line: HD-MB03; 48h); IC50 (μM): 1.3 (Cell line: HD-MB03; 72h); IC50 (μM): 7.5 (Cell line: D341Med; 24h); IC50 (μM): 4.9 (Cell line: D341Med; 48h); IC50 (μM): 4.6 (Cell line: D341Med; 72h)
(§3) centrations of C29 in 96‐well plates for 48h. 50μl/well of XTT solution (Cell Proliferation
(§4) kit II, Sigma‐Aldrich) were added to measure cell metabolism at 490 nm with GloMax‐ […]
(§5) 30 μg of proteins were separated on 10% SDS‐polyacrylamide
(§6) gels and transferred on PVDF membranes in Tris‐Glycine buffer (25 mM Tris, 192 mM
(§7) glycine, pH 8∙3) + 20% ethanol (v:v). Membranes were blocked with 3% BSA, at room tem‐
(§8) perature for 1 h, then immunoblotted overnight with primary antibodies diluted in 3%
(§9) BSA, at 4 °C. The following primary antibodies were used: AKT (CST, #9272S), phospho‐
(§10) ARD1 (homemade polyclonal rabbit antibody). Membranes were incubated with HRP‐
(§11) conjugated secondary antibodies anti‐rabbit IgG 1/5000e (Promega), at room temperature,
(§12) for 1h30. After washing, the Advansta WesternBright Quantum HRP substrate (Diagom‐
(§13) ics, Blagnac, France) was used as detection reagent.

Daoy cells [1] = experiment: XTT assay (cell metabolism/cytotoxicity); settings: for IC50: Homo sapiens, Daoy
Excerpt: as §1, §2, §3, §4, §5, §6, §7, §8, §9, §10, §11, §12, §13

HD-MB03 cells = experiment: XTT assay (cell metabolism/cytotoxicity); settings: for IC50: Homo sapiens
Excerpt: as §1, §2, §3, §4, §5, §6, §7, §8, §9, §10, §11, §12, §13

ONS-76 cells [2] = experiment: XTT assay (cell metabolism/cytotoxicity); settings: for IC50: Homo sapiens
Excerpt: as §1, §2, §3, §4, §5, §6, §7, §8, §9, §10, §11, §12, §13

Daoy cells [3] = experiment: Spheroid invasion, 3D culture; settings: 1 µM, from day 2
Method: (§14) Figure 4 C29 reduces proliferation, migration, and invasion of naïve MB cells. (A) Proliferation of Daoy, ONS-76, HD-MB03, and D341Med wild-type cells after treatment with 1 μM C29 or the control (DMSO), n = 3. (B) Clonogenic assay on Daoy (n = 4), ONS-76 (n = 3) and HD -MB03 (n = 5) cells after treatment with control (DMSO) or C29 (1 μM or 2.5 μM). Scale = 500 μm. (C) Cell migration through the Boyden chamber of Daoy and ONS-76 cells specifically attracted by 200 ng/mL CXCL8. Results are expressed as percentage of control (DMSO) (n = 3). Scale = 1000 μm. (D) Spheroid invasion using 3D culture cell assays on Daoy (n = 4) and ONS-76 cells (n = 3) treated with control (DMSO) or C29 at a concentration of 1 μM on day 0, 1, and 2. Results are expressed as percentage of day 0, n = 4. Scale = 500 μm. Statistics were performed using Student t-test for 2 comparisons only or ANOVA test for multiple comparisons. * p < 0.05, ** p < 0.01, *** p < 0.001. […]
(§15) each month by using PlasmoTest Kit (#10L07‐MM, InvivoGen, Toulouse, France). Daoy and ONS‐76 belong to the Shh genetic subgroup, D341‐Med and HD‐MB03 to group 3. […]
(§16) (1, 2∙5, 5μM) for 48 hours. […]
(§17) 5000 cells were plated in 48 multi‐well plates coated with agarose 0∙8%. […] Images were recorded each day with the Evos XL Core Cell Imaging system (Thermo Fisher).

ONS-76 cells [4] = experiment: Spheroid invasion, 3D culture; settings: ONS-76, 1 µM, from day 7
Method: as §14, §15, §16, §17

With O=C(Nc1cccc(Cl)c1)Nc1nc2ccc([N+](=O)[O-])cc2s1 [C29, 1-(3-chlorophenyl)-3-(6-nitrobenzo[d]thiazol-2-yl) urea] as the compound, how does the “Effect on cell metabolism at low concentrations” value (D341Med cells; D341Med, 72 h, 0.1 to 2.5 µM) read?
Its value is “stimulated metabolism”.

And the IC50 (D341Med cells; D341Med, 24 h)?
The IC50 was 7.5 µM.

What about the IC50 (D341Med cells; D341Med, 48 h) of the same compound?
The IC50 was 4.9 µM.

And the IC50 (D341Med cells; D341Med, 72 h)?
The IC50 was 4.6 µM.

And the “Selectivity index (SI)” value (D341Med cells; IC50 normal cells (C8D1A) / IC50 D341Med)?
The value was 3.94.

And the IC50 (Daoy cells [1]; 24 h)?
The IC50 was 5.6 µM.

And the IC50 (Daoy cells [1]; 48 h)?
Its IC50 is 3 µM.

And the IC50 (Daoy cells [1]; 72 h)?
Its IC50 is 0.9 µM.

And the “Selectivity index (SI)” value (Daoy cells [1]; IC50 normal cells (C8D1A) / IC50 Daoy)?
Its value is 6.44.

And the IC50 (HD-MB03 cells; HD-MB03, 24 h)?
The IC50 was 2.6 µM.

What about the IC50 (HD-MB03 cells; HD-MB03, 48 h) of the same compound?
Its IC50 is 1.8 µM.

And the IC50 (HD-MB03 cells; HD-MB03, 72 h)?
The IC50 was 1.3 µM.

What about the “Selectivity index (SI)” value (HD-MB03 cells; IC50 normal cells (C8D1A) / IC50 HD-MB03) of the same compound?
Its value is 10.7.

And the IC50 (ONS-76 cells [2]; ONS-76, 24 h)?
The IC50 was 17.9 µM.

What about the IC50 (ONS-76 cells [2]; ONS-76, 48 h) of the same compound?
Its IC50 is 6.8 µM.

What about the IC50 (ONS-76 cells [2]; ONS-76, 72 h) of the same compound?
Its IC50 is 2.1 µM.

What about the “Selectivity index (SI)” value (ONS-76 cells [2]; IC50 normal cells (C8D1A) / IC50 ONS-76) of the same compound?
The value was 2.84.

What about the Spheroid invasion ability (Daoy cells [3]) of the same compound?
The Spheroid invasion ability was “affected the invasion ability”.

And the Spheroid invasion ability (ONS-76 cells [4])?
The Spheroid invasion ability was “affected the invasion ability”.
